These results are taken from patent US9163021B2, “Pyrrolo[3,2-c]pyridine tropomyosin-related kinase inhibitors” (Pfizer Limited, priority 2012, dated 2015).

This assay deals with TRKA (Homo sapiens (Human), UniProt P04629). As to the kind of experiment: Isolated TRK enzyme assay (HTRF KinEASE-TK), PV3144 TrkA enzyme assay. The assay is classed as biochemical. The following applies: arithmetic mean where more than one reading. The protocol: Isolated TRK Enzyme assays use the HTRF KinEASE-TK kit (Cisbio Cat#62TK0PEJ) with recombinant His-tagged cytoplasmic domains of each TRK receptor sourced from Invitrogen (see table below). This activity-assay measures the phosphorylation of tyrosine residues within a substrate from the HTRF kit which has been validated by Cisbio for a variety of tyrosine kinases including the TRK receptors.
TRKA, sequence (P04629 441-796): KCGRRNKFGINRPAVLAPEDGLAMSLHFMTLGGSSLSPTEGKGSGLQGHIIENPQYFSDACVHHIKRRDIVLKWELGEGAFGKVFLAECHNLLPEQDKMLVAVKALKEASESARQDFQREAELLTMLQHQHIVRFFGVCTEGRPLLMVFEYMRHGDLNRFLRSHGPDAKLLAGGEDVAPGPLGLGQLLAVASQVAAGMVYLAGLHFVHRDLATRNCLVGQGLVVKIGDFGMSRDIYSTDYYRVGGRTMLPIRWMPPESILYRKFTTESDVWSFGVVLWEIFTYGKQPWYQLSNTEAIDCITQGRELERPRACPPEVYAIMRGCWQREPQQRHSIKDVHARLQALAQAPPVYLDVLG
0.5 mM stock solutions of test compounds are prepared and serially diluted in 100% DMSO. A standard curve using the compound of Example 135 disclosed in WO2005/116035 of 150 uM is also prepared on each test plate. High percentage effect (HPE) is defined by 150 uM (using the compound of Example 135 as disclosed in WO2005/116035) and 0% effect (ZPE) is defined by 100% DMSO. Greiner low volume black plates containing 0.2 ul of serially diluted compound, standard and HPE/ZPE are created using the Bravo nanoliter dispenser.
1× enzyme buffer is prepared from 5× Enzymatic Buffer from the Cisbio KinEASE TK kit using MilliQ water. The buffer is then supplemented with 10 mM MgCI and 2 mM DTT (both from Sigma). In the case of TRKB, the buffer is also supplemented with 125 nM Supplement Enzymatic Buffer (SEB) from the Cisbio kit.
2× FAC of enzyme and 2× FAC ATP diluted in 1× complete enzyme buffer is incubated at room temperature for 20 minutes to preactivate the enzyme. Following this preactivation step, 5 ul/well of enzyme+ATP mix is added using a Multidrop Micro to the assay plate, spotted with 0.2 ul 100% DMSO compound. This is left for 20 mins at room temperature before adding 5 ul of 2 uM TK-substrate-Biotin (from the Cisbio kit) diluted in 1× enzyme buffer (1 uM FAC) using the Multidrop Micro. The reaction is incubated at room temperature for the optimized assay reaction time (see table). The reaction is stopped by adding 10 ul/well HTRF Detection Buffer containing 0.25 uM Streptavidin-XL665 (0.125 uM FAC) and 1:200 TK Antibody-Cryptate using a Multidrop.
After the Detection Reagent addition, plates are covered and incubated at room temperature for 60 minutes. HTRF signal is read using an Envision reader, measured as a ratio of emissions at two different wavelengths, 620 nm and 665 nm. […] Test compound data are expressed as percentage inhibition defined by HPE and ZPE values for each plate. Percentage inhibition in the presence of test compound is plotted against compound concentration on a log scale to determine an IC50 from the resultant sigmoid curve.
Where more than one reading was taken, the arithmetic mean is presented.
Regarding “2-(2,5-dicyclopropyl-1,3-oxazol-4-yl)-N-(4-{[1-(oxetan-3-yl)-1H-pyrrolo[3,2-c]pyridin-3-yl]carbonyl}pyridin-2-yl)acetamide [Example 203]”, the IC50 is 71.3 nM. This lies in the double-digit nanomolar range.

As to “2-(3-methoxyphenyl)-N-(5-{[1-(propan-2-yl)-1H-pyrrolo[3,2-c]pyridin-3-yl]carbonyl}pyridin-3-yl)acetamide [Example 129]”, the half-inhibitory concentration (IC50) is 96.2 nM. This IC50 and that of the molecule before are within 1.5-fold of each other. `CC(CO)n1cc(C(=O)c2cc(NC(=O)Cc3ccc(Cl)cn3)ccn2)c2cnccc21` (single isomer, unassigned) [Example 17, 2-(5-chloropyridin-2-yl)-N-(2-{[1-(1-hydroxypropan-2-yl)-1H-pyrrolo[3,2-c]pyridin-3-yl]carbonyl}pyridin-4-yl)acetamide] registered an IC50 of 106 nM. The IC50 values of the last two molecules are within 1.5-fold of each other.

`CC(CO)n1cc(C(=O)c2cc(NC(=O)Cc3cccc(C(F)(F)F)c3)ccn2)c2cnccc21` (single isomer, unassigned) [Example 18, 2-(3-trifluoromethylphenyl)-N-(2-{[1-(1-hydroxypropan-2-yl)-1H-pyrrolo[3,2-c]pyridin-3-yl]carbonyl}pyridin-4-yl)acetamide] registered a concentration for half-maximal inhibition (IC50) of 36.4 nM. The value for `CC(CO)n1cc(C(=O)c2cncc(NC(=O)Cc3cccc(C(F)(F)F)c3)c2)c2cnccc21` (single isomer, unassigned) [Example 34, N-(5-{[1-(1-hydroxypropan-2-yl)-1H-pyrrolo[3,2-c]pyridin-3-yl]carbonyl}pyridin-3-yl)-2-[3-(trifluoromethyl)phenyl]acetamide] was 17.1 nM; that for `CC(CO)n1cc(C(=O)c2cncc(NC(=O)Cc3ccc(C(F)(F)F)cc3)c2)c2cnccc21` (single isomer, unassigned) [Example 35, N-(5-{[1-(1-hydroxypropan-2-yl)-1H-pyrrolo[3,2-c]pyridin-3-yl]carbonyl}pyridin-3-yl)-2-[4-(trifluoromethyl)phenyl]acetamide] was 87.9 nM. For `CC(CO)n1cc(C(=O)c2cncc(NC(=O)Cc3cccc(C(F)(F)F)c3)c2)c2cnccc21` (single isomer, unassigned) [Example 36, N-(5-{[1-(1-hydroxypropan-2-yl)-1H-pyrrolo[3,2-c]pyridin-3-yl]carbonyl}pyridin-3-yl)-2-[3-(trifluoromethyl)phenyl]acetamide], the IC50 was 44.7 nM. `CC(CO)n1cc(C(=O)c2cncc(NC(=O)Cn3cc(C(F)(F)F)nn3)c2)c2cnccc21` (single isomer, unassigned) [Example 59, N-(5-{[1-(1-hydroxypropan-2-yl)-1H-pyrrolo[3,2-c]pyridin-3-yl]carbonyl}pyridin-3-yl)-2-[4-(trifluoromethyl)-1H-1,2,3-triazol-1-yl]acetamide] showed an IC50 of 63.9 nM.

In turn, `CC(CO)n1cc(C(=O)c2cncc(NC(=O)Cn3cc(C4CC4)nn3)c2)c2cnccc21` (single isomer, unassigned) [Example 61, 2-(4-cyclopropyl-1H-1,2,3-triazol-1-yl)-N-(5-{[1-(1-hydroxypropan-2-yl)-1H-pyrrolo[3,2-c]pyridin-3-yl]carbonyl}pyridin-3-yl)acetamide] returned an IC50 of 65.9 nM. Turning to `CC(C)c1cn(CC(=O)Nc2cncc(C(=O)c3cn(C(C)CO)c4ccncc34)c2)nn1` (single isomer, unassigned) [Example 62, N-(5-{[1-(1-hydroxypropan-2-yl)-1H-pyrrolo[3,2-c]pyridin-3-yl]carbonyl}pyridin-3-yl)-2-[4-(propan-2-yl)-1H-1,2,3-triazol-1-yl]acetamide], the IC50 was 54.3 nM. This IC50 and that of the molecule before are within 1.5-fold of each other. In the case of `Cc1cc(C(F)(F)F)nn1CC(=O)Nc1cncc(C(=O)c2cn(C(C)CO)c3ccncc23)c1` (single isomer, unassigned) [Example 63, N-(5-{[1-(1-hydroxypropan-2-yl)-1H-pyrrolo[3,2-c]pyridin-3-yl]carbonyl}pyridin-3-yl)-2-[5-methyl-3-(trifluoromethyl)-1H-pyrazol-1-yl]acetamide] it was 28.8 nM; in that of `CC(C)n1ncc(CC(=O)Nc2cncc(C(=O)c3cn(C(C)CO)c4ccncc34)c2)c1C(F)(F)F` (single isomer, unassigned) [Example 64, N-(5-{[1-(1-hydroxypropan-2-yl)-1H-pyrrolo[3,2-c]pyridin-3-yl]carbonyl}pyridin-3-yl)-2-[1-(propan-2-yl)-5-(trifluoromethyl)-1H-pyrazol-4-yl]acetamide], 105 nM; in that of `CC(CO)n1cc(C(=O)c2cncc(NC(=O)Cc3ccc(C(F)(F)F)cc3)c2)c2cnccc21` (single isomer, unassigned) [Example 65, N-(5-{[1-(1-hydroxypropan-2-yl)-1H-pyrrolo[3,2-c]pyridin-3-yl]carbonyl}pyridin-3-yl)-2-[4-(trifluoromethyl)phenyl]acetamide], 37 nM. The value for `CC(CO)n1cc(C(=O)c2cncc(NC(=O)Cc3ccc(Cl)cn3)c2)c2cnccc21` (single isomer, unassigned) [Example 66, 2-(5-chloropyridin-2-yl)-N-(5-{[1-(1-hydroxypropan-2-yl)-1H-pyrrolo[3,2-c]pyridin-3-yl]carbonyl}pyridin-3-yl)acetamide] was 37.6 nM. The value for `CC(CO)n1cc(C(=O)c2cncc(NC(=O)Cc3ccc(F)cn3)c2)c2cnccc21` (single isomer, unassigned) [Example 68, 2-(5-fluoropyridin-2-yl)-N-(5-{[1-(1-hydroxypropan-2-yl)-1H-pyrrolo[3,2-c]pyridin-3-yl]carbonyl}pyridin-3-yl)acetamide] was 201 nM; that for `CC(CO)n1cc(C(=O)c2cncc(NC(=O)Cn3cc(C(F)(F)F)nn3)c2)c2cnccc21` (single isomer, unassigned) [Example 69, N-(5-{[1-(1-hydroxypropan-2-yl)-1H-pyrrolo[3,2-c]pyridin-3-yl]carbonyl}pyridin-3-yl)-2-[4-(trifluoromethyl)-1H-1,2,3-triazol-1-yl]acetamide] was 77.6 nM.

Molecule `CC(C)c1cn(CC(=O)Nc2cncc(C(=O)c3cn(C(C)CO)c4ccncc34)c2)nn1` (single isomer, unassigned) [Example 70, N-(5-{[1-(1-hydroxypropan-2-yl)-1H-pyrrolo[3,2-c]pyridin-3-yl]carbonyl}pyridin-3-yl)-2-[4-(propan-2-yl)-1H-1,2,3-triazol-1-yl]acetamide] displayed a half-maximal inhibitory concentration (IC50) of 65.6 nM.

`CC(C)n1ncc(CC(=O)Nc2cncc(C(=O)c3cn(C(C)CO)c4ccncc34)c2)c1C(F)(F)F` (single isomer, unassigned) [Example 71, N-(5-{[1-(1-hydroxypropan-2-yl)-1H-pyrrolo[3,2-c]pyridin-3-yl]carbonyl}pyridin-3-yl)-2-[1-(propan-2-yl)-5-(trifluoromethyl)-1H-pyrazol-4-yl]acetamide]: half-maximal inhibition (IC50) was put at 149 nM. For the molecule `CC(CO)n1cc(C(=O)c2cncc(NC(=O)Cc3ccc(C#N)cc3)c2)c2cnccc21` (single isomer, unassigned) [Example 72, 2-(4-cyanophenyl)-N-(5-{[1-(1-hydroxypropan-2-yl)-1H-pyrrolo[3,2-c]pyridin-3-yl]carbonyl}pyridin-3-yl)acetamide], the IC50 amounted to 125 nM. In the case of `CC(CO)n1cc(C(=O)c2cncc(NC(=O)Cc3ccc(Cl)cn3)c2)c2cnccc21` (single isomer, unassigned) [Example 73, 2-(5-chloropyridin-2-yl)-N-(5-{[1-(1-hydroxypropan-2-yl)-1H-pyrrolo[3,2-c]pyridin-3-yl]carbonyl}pyridin-3-yl)acetamide], inhibition was half-maximal at 88.3 nM (IC50).

The term IC50 denotes the concentration needed to halve the response being measured.
